In patent US4201786A, “Water soluble pesticidal quaternary ammonium salt compounds” (Union Carbide Corporation, priority 1977, dated 1980):

Tests used:
Type in all cases: in vivo
[1] = system: two-spotted mite (Tetranychus urticae Koch); experiment: Mite foliage spray test; design: key: A: Excellent control; B: Partial control; C: No control; settings: 500 ppm, six days
Experimental: (§1) Suspensions of the test compounds were prepared by dissolving one gram of compound in 50 milliliters of acetone in which had been dissolved 0.1 gram (10 percent of the weight of compound) of an alkylphenoxy polyethoxyethanol surfactant, as an emulsifying or dispersing agent. The resulting solution was mixed into 150 milliliters of water to give roughly 200 milliliters of a suspension containing the compound in finely divided form. The thus-prepared stock suspension contained 0.5 percent by weight of test compound. The test concentrations in parts per million by weight employed in the tests described hereinbelow were obtained by appropriate dilutions of the stock suspension with water. The test procedures were as follows:
Adults and nymphal stages of the two-spotted mite (Tetranychus urticae Koch), reared on Tendergreen bean plants at 80±5 percent relative humidity, were the test organisms. Infested leaves from a stock culture were placed on the primary leaves of two bean plants six to eight inches in height, growing in a two- and-a-half inch clay pot. 150-200 mites, a sufficient number for testing, transferred from the excised leaves to the fresh plants in a period of twenty-four hours. Following the twenty-four hour transfer period, the excised leaves were removed from the infested plants. The test compounds were formulated by diluting the stock suspension with water to give a suspension with water to give a suspension containing 500 parts of test compound per million parts of final formulation. The potted plants (one pot per compound) were placed on a revolving turntable and sprayed with 100-110 milliliters of test compound formulation by use of a DeVilbiss spray gun set at 40 psig. air pressure. This application, which lasted for 25 seconds was sufficient to wet the plants to run-off. As a control, 100-110 milliliters of a water solution containing acetone and emulsifier in the same concentrations as the test compound formulation, but containing no test compound, were also sprayed on infested plants. The sprayed plants were held at 80±5 percent relative humidity for six days, after which a mortality count of motile forms was made. Microscopic examination for motile forms was made on the leaves of the test plants. Any individual which was capable of locomotion upon prodding, was considered living.
(§2) In these test the pesticidal activity of the compounds against aphid, mite, Southern Armyworm, Mexican Bean Beetle, and house fly was rated as follows: […]

Tomato = experiment: Phytotoxicity test, tomato; design: key: 1: no perceptible injury; 2: intermediate degrees of injury based upon the number and extent to which leaves were injured; 3: intermediate degrees of injury based upon the number and extent to which leaves were injured; 4: intermediate degrees of injury based upon the number and extent to which leaves were injured; 5: the plant was dead; settings: 2500 ppm spray, after ten days
Experimental: as §1
Experiments were also conducted to determine the phytotoxicity of representative compositions with respect to healthy fresh plants. Solutions of the compounds were prepared as described above to provide a concentration of 2500 parts per million of the test compound. The test plants were sprayed in accordance with the procedure described above for the Mite Foliage Spray Test so as to deliver approximately 100 milliliters of test solution to the leaves of each plant tested. The sprayed plants and controls were set aside for approximately one hour to allow the solutions to dry and were then placed in the greenhouse. After ten days the plants were visually inspected to determine the extent of foliage injury. A rating of 1 indicates no perceptible injury; 5 indicates the plant was dead and ratings of 2, 3 and 4 indicate intermediate degrees of injury based upon the number and extent to which leaves were injured.

[2] = system: bean aphid (Aphis fabae Scop.); experiment: Bean aphid foliage spray test; design: key: A: Excellent control; B: Partial control; C: No control; settings: 500 ppm, 24 hour
Experimental: as §1
Adults and nymphal stages of the bean aphid (Aphis fabae Scop.) reared on potted dwarf nasturtium plants at 65°-70° F. and 50-70 percent relative humidity, constituted the test insects. For testing purposes, the number of aphids per pot was standardized to 100-150 by trimming plants containing excess aphids.
The test compounds were formulated by diluting the stock suspension with water to give a suspension containing 500 parts of test compound per million parts of final formulation.
The potted plants (one pot per compound tested) infested with 100-150 aphids, were placed on a revolving turntable and sprayed with 100-110 milliliters of test compound formulation by use of a DeVilbiss spray gun set at 40 psig. air pressure. This application, which lasted 25 seconds, was sufficient to wet the plants to run-off. As a control, 100-110 milliliters of a water-acetone-emulsifier solution containing no test compound were also sprayed on infested plants. After spraying, the pots were placed on their sides on a sheet of white standard mimeograph paper which had been previously ruled to facilitate counting. Temperature and humidity in the test room during the 24 hour holding period were 65°-70° F. and 50-70 percent, respectively. Aphids which fell onto the paper and were unable to remain standing after being uprighted were considered dead. Aphids remaining on the plants were observed closely for movement and those which were unable to move the length of the body upon stimulator by prodding were considered dead. Percent mortality was recorded for various concentration levels.
as §2

SMILES | Pesticidal activity, Mite [1] | POST-Emergent Herbicidal (phytotoxicity rating), Tomato (Tomato) | Pesticidal activity, Aphid [2]
CN(C(=O)C[N+](C)(C)C)C(=O)Oc1cccc2c1OC(C)(C)C2 | C | 2 | A
CN(C(=O)C[n+]1ccn(C)c1)C(=O)Oc1cccc2c1OC(C)(C)C2 | A | 1 | A
CN(C(=O)C[n+]1ccc(N(C)C)cc1)C(=O)Oc1cccc2c1OC(C)(C)C2 | A | 1 | A
CN(C(=O)C[N+]1(C)CCCC1)C(=O)Oc1cccc2c1OC(C)(C)C2 | A | 1 | A
CCCCCCCCCCCCCCCCCC[N+](C)(C)CC(=O)N(C)C(=O)Oc1cccc2c1OC(C)(C)C2 | C | 1 | B
CCCCCCCCCCCC[N+](C)(C)CC(=O)N(C)C(=O)Oc1cccc2c1OC(C)(C)C2 | A | 2 | A
